According to patent publication US20150284381A1, “AMINO-PYRIDINE-CONTAINING SPLEEN TYROSINE KINASE (SYK) INHIBITORS” (MERCK SHARP & DOHME CORP., priority 2012, published 2015):

Each molecule was assayed against T1, recombinant human GST-Syk (Homo sapiens, UniProt P43405) (assay: Homogeneous Time-Resolved Fluorescence (HTRF) assay for the recombinant human Syk enzyme). Details: recombinant human GST-Syk 5 pM, ATP 25 μM, 45 min at rt, read-out: rhSyk.
T1 construct: purchased Carna Biosciences 08-176
Type: biochemical
Procedure: Homogeneous Time-Resolved Fluorescence (HTRF) Assay for the Recombinant Human Syk Enzyme
A recombinant GST-hSyk fusion protein was used to measure potency of compounds to inhibit human Syk activity. The recombinant human GST-Syk (Carna Biosciences #08-176) (5 pM nominal concentration) was incubated with various concentrations of the inhibitor diluted in DMSO (0.1% final concentration) for 10 minutes at rt in 15 mM Tris-HCl (pH 7.5), 0.01% tween 20, 2 mM DTT in 384 well plate format. To initiate the reaction the biotinylated substrate peptide (250 nM final concentration) that contains the phosphorylation site for Syk was added with magnesium (5 mM final concentration) and ATP (25 μM final concentration). Final volume of the reaction was 10 μL. Phosphorylation of the peptide was allowed to proceed for 45′ at rt. To quench the reaction and detect the phosphorylated product, 2 nM of a Europium-anti-phosphotyrosine antibody (Perkin Elmer #AD0161) and 70 nM SA-APC (Perkin-Elmer #CR130-100) were added together in 15 mM Tris pH 7.5, 40 mM EDTA, 0.01% tween 20. Final volume of the quenching solution was 10 μL. The resulting HTRF signal was measured after 30 minutes on a EnVision (Perkin-Elmer) reader using a time-resolved fluorescence protocol. IC50 was determined following 10-dose titration (10 μM to 0.508 nM) and four parameter logistic curve fitting using an assay data analyzer.

Row | Structure (SMILES) | IC50 [nM]
1 | Cc1cc(Nc2cc(C(F)(F)F)ccn2)nc(-c2cnc(C3(O)CCCc4cc(C(=O)O)c(Br)cc43)s2)c1 (single isomer, unassigned) [Example 1A, 3-Bromo-5-hydroxy-5-[5-(4-methyl-6-{[4-(trifluoromethyl)pyridin-2-yl]amino}pyridin-2-yl)-1,3-thiazol-2-yl]-5,6,7,8-tetrahydronaphthalene-2-carboxylic acid] | 1.51
2 | Cc1cc(Nc2cc(C(F)(F)F)ccn2)nc(-c2cnc(C3(O)CCCc4cc(C(=O)O)c(Br)cc43)s2)c1 (single isomer, unassigned) [Example 1B, 3-Bromo-5-hydroxy-5-[5-(4-methyl-6-{[4-(trifluoromethyl)pyridin-2-yl]amino}pyridin-2-yl)-1,3-thiazol-2-yl]-5,6,7,8-tetrahydronaphthalene-2-carboxylic acid] | 0.51
3 | Cc1cc(Nc2cc(C(F)(F)F)ccn2)nc(-c2cnc(C3(O)CCc4cc(C(=O)O)c(F)cc43)s2)c1 (single isomer, unassigned) [Example 1C, (R or S)-6-fluoro-1-hydroxy-1-[5-(4-methyl-6-{[4-(trifluoromethyl)pyridin-2-yl]amino}pyridin-2-yl)-1,3-thiazol-2-yl]-2,3-dihydro-1H-indene-5-carboxylic acid] | 0.39
4 | Cc1cc(Nc2cc(C(F)(F)F)ccn2)nc(-c2cnc(C3(O)CCc4cc(C(=O)O)c(F)cc43)s2)c1 (single isomer, unassigned) [Example 1D, (R or S)-6-fluoro-1-hydroxy-1-[5-(4-methyl-6-{[4-(trifluoromethyl)pyridin-2-yl]amino}pyridin-2-yl)-1,3-thiazol-2-yl]-2,3-dihydro-1H-indene-5-carboxylic acid] | 0.67
5 | Cc1cc(Nc2cc(C(F)(F)F)ccn2)nc(-c2cnc(C3(O)CCCc4cc(C(=O)O)c(Cl)cc43)s2)c1 (single isomer, unassigned) [Example 1E, (R or S)-3-chloro-5-hydroxy-5-[5-(4-methyl-6-{[4-(trifluoromethyl)pyridin-2-yl]amino}pyridin-2-yl)-1,3-thiazol-2-yl]-5,6,7,8-tetrahydronaphthalene-2-carboxylic acid] | 1.16
6 | Cc1cc(Nc2cc(C(F)(F)F)ccn2)nc(-c2cnc(C3(O)CCCc4cc(C(=O)O)c(Cl)cc43)s2)c1 (single isomer, unassigned) [Example 1F, (R or S)-3-chloro-5-hydroxy-5-[5-(4-methyl-6-{[4-(trifluoromethyl)pyridin-2-yl]amino}pyridin-2-yl)-1,3-thiazol-2-yl]-5,6,7,8-tetrahydronaphthalene-2-carboxylic acid] | 0.17
7 | Cc1cc(Nc2cc(C3CC3)ccn2)nc(-c2cnc(C3(O)CCCc4cc(C(=O)O)c(F)cc43)s2)c1 (single isomer, unassigned) [Example 1G, (R or S)-5-(5-{6-[(4-cyclopropylpyridin-2-yl)amino]-4-methylpyridin-2-yl}-1,3-thiazol-2-yl)-3-fluoro-5-hydroxy-5,6,7,8-tetrahydronaphthalene-2-carboxylic acid] | 4.3
8 | Cc1cc(Nc2cc(C3CC3)ccn2)nc(-c2cnc(C3(O)CCCc4cc(C(=O)O)c(F)cc43)s2)c1 (single isomer, unassigned) [Example 1H, (R or S)-5-(5-{6-[(4-cyclopropylpyridin-2-yl)amino]-4-methylpyridin-2-yl}-1,3-thiazol-2-yl)-3-fluoro-5-hydroxy-5,6,7,8-tetrahydronaphthalene-2-carboxylic acid] | 0.002
9 | Cc1cc(Nc2cc(C(F)(F)F)ccn2)nc(-c2cnc(C3(O)CCCc4c3ccc(C(=O)O)c4F)s2)c1 (single isomer, unassigned) [Example 1J, (R or S)-1-fluoro-5-hydroxy-5-[5-(4-methyl-6-{[4-(trifluoromethyl)pyridin-2-yl]amino}pyridin-2-yl)-1,3-thiazol-2-yl]-5,6,7,8-tetrahydronaphthalene-2-carboxylic acid] | 0.04
10 | Cc1cc(Nc2cc(C(F)(F)F)ccn2)nc(-c2cnc(C3(O)CCCc4c3ccc(C(=O)O)c4F)s2)c1 (single isomer, unassigned) [Example 1i, (R or S)-1-fluoro-5-hydroxy-5-[5-(4-methyl-6-{[4-(trifluoromethyl)pyridin-2-yl]amino}pyridin-2-yl)-1,3-thiazol-2-yl]-5,6,7,8-tetrahydronaphthalene-2-carboxylic acid] | 2.19
11 | Cc1cc(Nc2cc(-c3cn[nH]c3)ccn2)nc(-c2cnc(C3(O)CCCc4cc(C(=O)O)ccc43)s2)c1 (single isomer, unassigned) [Example 4B-1, 5-Hydroxy-5-[5-(4-methyl-6-{[4-(1H-pyrazol-4-yl)pyridin-2-yl]amino}pyridin-2-yl)-1,3-thiazol-2-yl]-5,6,7,8-tetrahydronaphthalene-2-carboxylic acid] | 1.2
12 | Cc1cc(Nc2cc(-c3cn[nH]c3)ccn2)nc(-c2cnc(C3(O)CCCc4cc(C(=O)O)ccc43)s2)c1 (single isomer, unassigned) [Example 4B-2, 5-Hydroxy-5-[5-(4-methyl-6-{[4-(1H-pyrazol-4-yl)pyridin-2-yl]amino}pyridin-2-yl)-1,3-thiazol-2-yl]-5,6,7,8-tetrahydronaphthalene-2-carboxylic acid] | 0.8
13 | Cc1cc(Nc2cc(-c3cn[nH]c3)ccn2)nc(-c2cnc(C3(O)CCCc4cc(C(=O)N(C)C)ccc43)s2)c1 (single isomer, unassigned) [Example 4C-1, 5-Hydroxy-N,N-dimethyl-5-[5-(4-methyl-6-{[4-(1H-pyrazol-4-yl)pyridin-2-yl]amino}pyridin-2-yl)-1,3-thiazol-2-yl]-5,6,7,8-tetrahydronaphthalene-2-carboxamide] | 1.04
14 | Cc1cc(Nc2cc(-c3cn[nH]c3)ccn2)nc(-c2cnc(C3(O)CCCc4cc(C(=O)N(C)C)ccc43)s2)c1 (single isomer, unassigned) [Example 4C-2, 5-Hydroxy-N,N-dimethyl-5-[5-(4-methyl-6-{[4-(1H-pyrazol-4-yl)pyridin-2-yl]amino}pyridin-2-yl)-1,3-thiazol-2-yl]-5,6,7,8-tetrahydronaphthalene-2-carboxamide] | 757

Second part, the molecule after the results:

Row | IC50 [nM] | Structure (SMILES)
15 | 0.04 | Cc1cc(Nc2cc(C(C)F)ccn2)nc(-c2cnc([C@@]3(O)CCc4cc(C(=O)O)ccc43)s2)c1 (single isomer, unassigned) [Example 2J, (1R)-1-[5-(6-{[4-((R or S)-1-fluoroethyl)pyridin-2-yl]amino}-4-methylpyridin-2-yl)-1,3-thiazol-2-yl]-1-hydroxy-2,3-dihydro-1H-indene-5-carboxylic acid]
16 | 0.05 | Cc1cc(Nc2cc(C(C)F)ccn2)nc(-c2cnc([C@@]3(O)CCc4cc(C(=O)O)ccc43)s2)c1 (single isomer, unassigned) [Example 2K, (1R)-1-[5-(6-{[4-((R or S)-1-fluoroethyl)pyridin-2-yl]amino}-4-methylpyridin-2-yl)-1,3-thiazol-2-yl]-1-hydroxy-2,3-dihydro-1H-indene-5-carboxylic acid]
17 | 4.61 | Cc1cc(Nc2cc(C(F)(F)F)ccn2)nc(-c2cnc([C@@]3(O)CCCc4c3ccc(C(=O)O)c4O)s2)c1 (single isomer, unassigned) [Example 7A, 1,5-Dihydroxy-5-[5-(4-methyl-6-{[4-(trifluoromethyl)pyridin-2-yl]amino}pyridin-2-yl)-1,3-thiazol-2-yl]-5,6,7,8-tetrahydronaphthalene-2-carboxylic acid]
18 | 0.24 | Cc1cc(Nc2cc(C(F)(F)F)ccn2)nc(-c2cnc([C@@]3(O)CCCc4c3ccc(C(=O)O)c4O)s2)c1 (single isomer, unassigned) [Example 7B, 1,5-Dihydroxy-5-[5-(4-methyl-6-{[4-(trifluoromethyl)pyridin-2-yl]amino}pyridin-2-yl)-1,3-thiazol-2-yl]-5,6,7,8-tetrahydronaphthalene-2-carboxylic acid]
19 | 2 | Cc1cc(Nc2cc(C(C)F)ccn2)nc(-c2cnc(C3(O)CCCc4cc(C(=O)O)ccc43)s2)c1 (single isomer, unassigned) [Example 8A, 5-(5-(6-((4-(1-Fluoroethyl)pyridin-2-yl)amino)-4-methylpyridin-2-yl)thiazol-2-yl)-5-hydroxy-5,6,7,8-tetrahydronaphthalene-2-carboxylic acid]
20 | 0.1 | Cc1cc(Nc2cc(C(C)F)ccn2)nc(-c2cnc(C3(O)CCCc4cc(C(=O)O)ccc43)s2)c1 (single isomer, unassigned) [Example 8B, 5-(5-(6-((4-(1-Fluoroethyl)pyridin-2-yl)amino)-4-methylpyridin-2-yl)thiazol-2-yl)-5-hydroxy-5,6,7,8-tetrahydronaphthalene-2-carboxylic acid]
21 | 2 | Cc1cc(Nc2cc(C(C)F)ccn2)nc(-c2cnc(C3(O)CCCc4cc(C(=O)O)ccc43)s2)c1 (single isomer, unassigned) [Example 8C, 5-(5-(6-((4-(1-Fluoroethyl)pyridin-2-yl)amino)-4-methylpyridin-2-yl)thiazol-2-yl)-5-hydroxy-5,6,7,8-tetrahydronaphthalene-2-carboxylic acid]
